Experiment: xn = mol fraction of the nth substance listed

CNC=O + O
viscosity [mPa·s]
Conditions	298 K	298.15 K	303 K	303.15 K	308.15 K	313.15 K	318.15 K	323.15 K
101 kPa, x1 = 0.0328	1.05	–	0.9456	–	–	–	–	–
101 kPa, x1 = 0.1	–	1.384	–	1.219	1.083	0.9687	0.871	–
101 kPa, x1 = 0.1158	1.305	–	1.176	–	–	–	–	–
101 kPa, x1 = 0.1999	–	1.754	–	1.539	1.363	1.215	1.084	–
101 kPa, x1 = 0.2341	1.573	–	1.425	–	–	–	–	–
101 kPa, x1 = 0.3002	–	1.967	–	1.728	1.532	1.366	1.222	–
101 kPa, x1 = 0.4001	–	–	–	1.805	1.608	1.44	1.3	–
101 kPa, x1 = 0.4163	–	–	1.625	–	–	–	–	–
101 kPa, x1 = 0.4998	–	2.031	–	1.818	1.636	1.472	1.331	–
101 kPa, x1 = 0.6006	–	1.975	–	1.772	1.59	1.437	1.304	–
101 kPa, x1 = 0.6995	–	1.902	–	1.712	1.546	1.401	1.273	–
101 kPa, x1 = 0.7334	1.658	–	1.5	–	–	–	–	–
101 kPa, x1 = 0.8	–	1.836	–	1.658	1.502	1.364	1.243	–
101 kPa, x1 = 0.8997	–	1.781	–	1.609	1.459	1.327	1.21	–
101.33 kPa, x1 = 0.0969	–	–	–	1.216	1.086	0.974	0.8818	0.8012
101.33 kPa, x1 = 0.2015	–	–	–	1.529	1.36	1.219	1.098	0.9948
101.33 kPa, x1 = 0.2996	–	–	–	1.718	1.531	1.373	1.24	1.124
101.33 kPa, x1 = 0.4005	–	–	–	1.792	1.603	1.445	1.308	1.187
101.33 kPa, x1 = 0.4994	–	–	–	1.789	1.61	1.458	1.327	1.211
101.33 kPa, x1 = 0.5995	–	–	–	1.753	1.576	1.443	1.32	1.21
101.33 kPa, x1 = 0.6999	–	–	–	1.693	1.542	1.412	1.296	1.193
101.33 kPa, x1 = 0.7999	–	–	–	1.649	1.509	1.388	1.279	1.182
101.33 kPa, x1 = 0.9001	–	–	–	1.61	1.478	1.361	1.261	1.164

— the CheMixHub viscosity set
